Assay results published in patent US20260034236A1, “NEW DRUG COMPLEX” (KOWA COMPANY, LTD., priority 2022, published 2026).

Experiments:
[1] = tested on: mouse colon cancer cell line C26; test: Drug efficacy test in C26 tumor-bearing nude mice; format: in vivo; details: after 14 days from administration; tail vein, 3 times every other day; 8 mg/kg (3.9 mg/kg in terms of Pt)
Procedure: A tumor-bearing model obtained by subcutaneously transplanting a mouse colon cancer cell line C26 (American Type Culture Collection) into a female nude mouse (BALB/c-nu/nu, 7 weeks old; Charles River Laboratories Japan, Inc.) was used for a drug efficacy test.
A mouse colon cancer cell line C26 subcultured in a CO2 incubator was suspended in a liquid medium (Dulbecco's Modified Eagle's Medium-high glucose, Sigma-Aldrich Co. LLC), and injected subcutaneously in the back of nude mice so that the number of cells per mouse was 1×10^6/100 μL. Thereafter, the nude mice were raised for about 1 week, and administration of a drug was started when the average value of the tumor volume had grown to about 30 mm^3. A DACHPt-encapsulating SCNP (DACHPt-encapsulating SCNP prepared using the copolymer of Example 70) was administered into the tail vein (3 times every other day), and the antitumor effect was evaluated based on the tumor volume (4 to 5 mice per 1 group). As a comparison, an oxaliplatin solution (Comparative Example 1) was used, and it was administered in the same manner. The dose of each preparation was 8 mg/kg (3.9 mg/kg in terms of Pt) as the maximum administrable dose for the oxaliplatin solution, and 3 mg/kg in terms of Pt for the DACHPt-encapsulating SCNP. […]

[2] = tested on: CD20 antigen-negative human T-lymphoblastic leukemia-derived MOLT-4 cells; test: Cytotoxic test (CellTiter-Glo), CD20 antigen-negative cells; format: cell-based; details: cultured 4 days, read-out: IC50(nmol/L) MOLT-4 (CD20 negative)
Procedure: (§1) CD20 antigen-positive human B-cell lymphoma-derived Raji cells or CD20 antigen-negative human T-lymphoblastic leukemia-derived MOLT-4 cells were adjusted to a cell concentration of 5.0×10^4 cells/mL with the RPMI1640 medium, and 50 μL each was added to the 96-well microplate for cell culture, then cultured overnight. On the next day, 50 μL of the evaluation specimen diluted with the RPMI medium was separately added to the microplate, and the cells were cultured for 4 days at 37° C. under 5% CO2. After the culturing, CellTiter-Glo™ Luminescent Cell Viability Assay (Promega Corporation) was added to the microplate, and the mixture was stirred and left to stand at room temperature for 10 minutes. The light emission amount was then measured with a plate reader (Molecular Devices, LLC.). The cell viability and IC50 value were calculated.

[3] = tested on: CD20 antigen-positive human B-cell lymphoma-derived Raji cells; test: Cytotoxic test (CellTiter-Glo), CD20 antigen-positive cells; format: cell-based; details: high expression of CD20, cultured 4 days, read-out: IC50(nmol/L) Raji (High expression of CD20)
Procedure: as §1

O=C1[O][Pt]2([NH][C@@H]3CCCC[C@H]3[NH]2)[O]C1=O [Comparative Example 1, oxaliplatin]
T/C (ratio of the tumor volume of the drug administration group to that of the control group) [1]: 1.1

rituximab [Comparative Example 4]
IC50 [2]: > 69 nmol/L
IC50 [3]: > 69 nmol/L
